Values of other authors as cited in patent publication US8383697B2 (priority 2009, dated 2013).

Columns and labels:
rats = settings: in vivo
[1] = in vivo

Row | SMILES | Rat Oral LD50 (rats) | LD50 [1]
1 | O=C(OOC(=O)c1ccccc1)c1ccccc1 [Initiator VII, benzoyl peroxide] | 7,710 mg/kg | 
2 | CCCCCCCCCCCC(=O)OOC(=O)CCCCCCCCCCC [Initiator VIII, lauroyl peroxide] | 10,000 mg/kg | 
3 | CC(C)(C)OOC(C)(C)C [Initiator X, tert-butyl peroxide] | 25,000 mg/kg | 
4 | CC(C)(C)OOC(=O)c1ccccc1 [Initiator XI, tert-butyl peroxybenzoate] | 4,160 mg/kg | 
5 | CCO [ethanol] |  | 7060 mg/kg
